This is an account of results in publication PMC8202855, “Identification of novel hepatitis B virus therapeutic vaccine candidates derived from polymerase protein” (Aging (Albany NY), 2021).

“Also recorded” adds a separate entry of the source.

For one data set, the system named is HBV-DNA. Briefly: HBV gene expression assay: HBV-DNA (real-time fluorescence quantitative PCR). It is filed as cell-based, Hepatitis B virus. To be noted: co-culture with HepG2.2.15 cells, effector:target 10:1, 72 hours, supernatant quantitative PCR; versus PBS group; 3 independent experiments.
The next data set deals with T2 cells. Briefly: In vitro cytotoxicity assay against T2 cells (LDH release). It is filed as cell-based. As to conditions: peptide-pulsed T2 cells 1×10^5/well, effector:target 10:1, 20:1, 40:1, 37° C, 5 hours, 3 independent experiments. The protocol:
T2 cell is (transporter associated with antigen processing, TAP) deficient cell line. When T2 cell is cultured with different epitopes, the HLA-A0201 molecule on surface of T2 cell will bind to different epitopes, the epitope-HLA-A0201 complex can be recognized by epitope-specific T cells and corresponding T2 cell will be lysed. In order to determine the cytotoxic activity of epitope-specific T cells, we measured LDH release based on the instructions of a non-radioactive cytotoxicity assay kit (Promega, USA). Epitope-specific T cells served as effector cells, and T2 cells loaded with or without each peptide served as target cells. The ratios of effector cells versus target cells were set to 10:1, 20:1 and 40:1. The effector cells were co-cultured with target cells (1×10^5/well) at 37° C for 5 hours, and LDH release was measured.
A general note: LDH leaks from cells whose membrane has failed.

A further data set concerns HBsAg. As to conditions: co-culture with HepG2.2.15 cells, effector:target 10:1, 72 hours, supernatant ELISA; versus PBS group; 3 independent experiments. (In general: An ELISA detects its analyte on a solid surface through an enzyme-linked reagent.)
For the next data set, the system named is HepG2.2.15 cells. Briefly: In vitro cytotoxicity assay against HepG2.2.15 cells (LDH release). The class given is cell-based. As to conditions: effector:target 20:1, 37° C, 12 hours, versus PBS-induced control, 3 independent experiments. The protocol:
In order to determine the antiviral abilities of epitope-specific T-cells, we detect the cytotoxicity of epitope-specific T cells against HepG2.2.15 cell. […] The ratios of epitope-specific T-cells versus HepG2.2.15 cells were set to 5:1, 10:1, 20:1. The effector cells and target cells were incubated together in 96-well plates at 37° C for 12 hours, and each well was added to total volume of 200 ul. The cytotoxicity activity of epitope-specific T-cells was evaluated based on LDH release using a non-radio-active cytotoxicity assay kit (Promega, US). The percentage of lysis was calculated as formula: (experimental release- target cell spontaneous release- effector cell spontaneous release)/(target cell maximum release- target cell spontaneous release).

For data set [1], the system named is epitope-specific T cells from PBMCs of healthy donors. Briefly: In vitro human IFN-γ ELISPOT assay of epitope-specific T cells. As to conditions: HLA-A0201-positive PBMCs of healthy donors cultured with peptide 50 μM and IL-2 100 U/ml, day 20; T cells 5x10^5/ml; versus PBS-induced control; 3 independent experiments. It is filed as cell-based. The protocol: In order to measure the ability of epitope-specific T cells to produce IFN-γ, the ELISPOT assay was performed according to the instructions of the kit (Invitrogen, Carlsbad, CA, USA). Epitope-specific T cells(5x10^5/ml) were added to plates. An automated ELISPOT plate reader was used to quantify IFN-γ release by counting the number of spots present.

A further data set concerns the target T1, HLA-A0201 molecule (Homo sapiens, UniProt P04439, D140Y/D185E/D98H/E176V/E277Q/G131W/G231S/I119V/I121R/I166T/I218V/L300P/L318F/N151K/N90K/P208A/P217A/Q86G/Q94H/R138H/R169H/T345S).
T1 construct: endogenous in cells; host or cells: T2 cells (TAP-deficient human cell line)
Briefly: Peptide binding assay on T2 cells (HLA-A0201, flow cytometry). To be noted: T2 cells 1×10^6/well, peptide 100 μM, 18 hours, 37° C; FITC anti-HLA-A2 mAb BB7.2, flow cytometry; FI = (MFI peptide - background MFI)/background MFI; FI > 1 = high affinity; one representative of 3 independent experiments. For orientation: In flow cytometry, cells or beads pass a laser one at a time.

Description for HBV-DNA: (§1) To validate the ability of epitopes to induce and stimulate the epitope-specific T cells, we used PBMCs from the blood of healthy donors. […] PBMCs were obtained through centrifugation at a Ficoll-Paque density gradient and suspended in RPMI-1640 medium supplemented with 10% fetal bovine serum (FBS), 100 U/ml penicillin and 100 μM streptomycin. PBMCs were stained by FITC-conjugated anti-HLA-A2 mAb and analyzed by flow cytometry. HLA-A0201-positive PBMCs were used for the expansion of epitope-specific T cells. PBMCs were cultured with each peptide (50 μM) and recombinant interleukin 2 (100 U/ml; Sigma, USA). Half of the culture medium was replaced with fresh RPMI-1640 medium every 3 or 4 days. […]
(§2) The antiviral abilities of epitopes were also determined by HBV gene expression assay. […] The HBsAg concentration was detected by enzyme-linked immunosorbent assay (ELISA) according to the manufacturer’s protocol (Shanghai Siic Kehua Biotech Co., Ltd.). And the HBV-DNA concentration was detected by real-time fluorescence quantitative PCR according to the manufacturer’s protocol (Yaneng Bioscience (Shenzhen) Co., Ltd.). […] The inhibition ratios of HBsAg and HBV-DNA were calculated as the formula: (1- experimental group/ control group)×100%.
Description for HBsAg: as §1, §2
Description for HLA-A0201 molecule: To analyze the binding affinity between epitopes and the HLA-A0201 molecule, we performed a peptide binding assay according to our previous study [18]. Briefly, T2 cells (1×10^6/well) were incubated with peptides (100 μM) in 24-well plates for 18 hours at 37° C. T2 cells without peptides served as a background control. After being washed with phosphate buffer saline (PBS) three times, cells were stained with FITC-conjugated anti-HLA-A2 mAb BB7.2 and analyzed using a BD AccuriC6 flow cytometer (Becton Dickinson, Mountain View, CA, USA). The mean fluorescence index (MFI) was recorded [43]. We calculated the fluorescence index (FI) as follows: FI = (MFI with individual peptides - background MFI)/(background MFI).

Consider GLLGFAAPF, for which, in the data set with HBV-DNA, the “Elimination of HBV-DNA by epitope-specific T cells (in words)” value is reported as “higher abilities to eliminate HBV-DNA compared to the PBS group (P<0.05)”. Further, in the data set with T2 cells, the “Cytotoxic activity of epitope-specific T cells toward T2 cells (in words)” value is listed as “higher cytotoxic activity toward T2 cells compared to T cells stimulated by other epitopes”. Also, the “Inhibition of HBsAg expression by epitope-specific T cells (in words)” value in the data set with HBsAg is on record as “higher activities to inhibit the expression of HBsAg compared to the PBS group (P<0.05)”. In addition, in the data set with HepG2.2.15 cells, the “Cytotoxic activity of epitope-specific T cells against HepG2.2.15 cells (in words)” value is given as “higher cytotoxic activities against HepG2.2.15 cells compared to control group (P<0.05)”. Besides, the “IFN-γ secretion of epitope-specific T cells (ELISPOT, in words)” value (“IFN-γ secretion” below) in data set [1] is “more IFN-γ secretion than was measured in control (P<0.05)”.
Turning to HLPDRVHFA, the “Fluorescence index (FI)” value at HLA-A0201 molecule is recorded as 0.2920.
As to HLYSHPIIL, in the data set with HBV-DNA, the “Elimination of HBV-DNA by epitope-specific T cells (in words)” value is “higher abilities to eliminate HBV-DNA compared to the PBS group (P<0.05)”. The “Cytotoxic activity of epitope-specific T cells toward T2 cells (in words)” value in the data set with T2 cells is on record as “higher cytotoxic activity toward T2 cells compared to T cells stimulated by other epitopes”. Further, the “Inhibition of HBsAg expression by epitope-specific T cells (in words)” value in the data set on HBsAg is “higher activities to inhibit the expression of HBsAg compared to the PBS group (P<0.05)”. For the same sequence, the “Cytotoxic activity of epitope-specific T cells against HepG2.2.15 cells (in words)” value in the data set on HepG2.2.15 cells was “higher cytotoxic activities against HepG2.2.15 cells compared to control group (P<0.05)”. Besides, the “IFN-γ secretion” value in data set [1] is “more IFN-γ secretion than was measured in control (P<0.05)”.
Take RVTGGVFLV: the “Cytotoxic activity of epitope-specific T cells toward T2 cells (in words)” value in the data set with T2 cells is “lesser ability to induce epitope-specific T cells”. In the data set with HepG2.2.15 cells, the “Cytotoxic activity of epitope-specific T cells against HepG2.2.15 cells (in words)” value is listed as “higher cytotoxic activities against HepG2.2.15 cells compared to control group (P<0.05); also recorded: obvious weaker than the other two epitopes”. Further, in data set [1], the “IFN-γ secretion” value is listed as “lesser ability to induce epitope-specific T cells”.
Take YVIGSWGTL: on HLA-A0201 molecule, the “Fluorescence index (FI)” value is 0.8953.
